Key:
HTT [1] = experiment: RT-qPCR splicing assay, HTT AJ/CJ mRNA; format: cell-based, human; conditions: A673 or K562 cells; for IC50: decrease in canonical junction mRNA; for AC50: increase in alternative junction mRNA
Experimental: (§1) Compounds described herein were used to modulate RNA transcript abundance in cells. The expression of a target mRNA was measured by detecting the formation of an exon-exon junction in the canonical transcript (CJ). A compound mediated exon-inclusion event was detected by observing an increase in formation OF A new junction with an alternative exon (AJ). Real-time qPCR assays were used to detect these splicing switches and interrogate the potency of various compounds towards different target Genes. A high-throughput real time quantitative PCR (RT-qPCR) assay was developed to measure these two isoforms of the mRNA (CJ and AJ) for exemplary genes, such as HTT, SMN2, and MYB, together with a control housekeeping gene, GAPDH or GUSB or PPIA, used for normalization. Briefly, the A673 or K562 cell line was treated with various compounds described herein (e.g., compounds of Formula (i)). After treatment, the levels of the HTT, MYB, or SMN2 mRNA targets were determined from each sample of cell lysate by cDNA synthesis followed by qPCR.
(§2) The A673 cell line was cultured in DMEM with 10% FBS. Cells were diluted with full growth media and plated in a 96-well plate (15,000 cells in 100 ul media per well). The plate was incubated at 37° C. with 5% CO2 for 24 hours to allow cells to adhere. An 11-point 3-fold serial dilution of the compounds was made in DMSO then diluted in media in an intermediate plate. Compounds were transferred from the intermediate plate to the cell plate with the top dose at a final concentration of 10 uM in the well. Final DMSO concentration was kept at or below 0.25%. The cell plate was returned to the incubator at 37° C. with 5% CO2 for an additional 24 hours.
(§3) The K562 cell line was cultured in IMDM with 10% FBS. For K562, cells were diluted with full growth media and plated in either a 96-well plate (50,000 cells in 50 uL media per well) or a 384-well plate (8,000-40,000 cells in 45 uL media per well). An 11-point 3-fold serial dilution of the compounds were made in DMSO then diluted in media in an intermediate plate. Compound was transferred from the intermediate plate to the cell plate with the top dose at a final concentration of 10 uM in the well. Final DMSO concentration was kept at or below 0.25%. Final volume was 100 uL for 96-well plate and 50 uL for 384-well plate. The cell plate was then placed in an incubator at 37° C. with 5% CO2 for 24 hours.
(§4) The cells were then gently washed with 50 uL-100 uL Cold Pbs before proceeding to addition of lysis buffer. 30 uL-50 μL of room temperature lysis buffer with DNAse I (and optionally RNAsin) was added to each well. Cells were shaken/mixed thoroughly at room temperature for 5-10 minutes for lysis to take place and then 3 uL-5 μL of room temperature stop solution was added and wells were shaken/mixed again. After 2-5 minutes, the cell lysate plate was transferred to ice for RT-qPCR reaction setup. The lysates could also be frozen at −80° C. for later use.
(§5) In some cases, a direct lysis buffer was used. an appropriate volume of 3× lysis buffer (10 mM tRis, 150 mM NaCl, 1.5%-2.5% Igepal and 0.1-1 U/uL RNAsin, pH 7.4) was directly added to either K562 or A673 cells in media and mixed by pipetting 3 times. The plates were then incubated at room temperature with shaking/rocking for 20-50 minutes to allow for lysis to take place. After this time, the cell lysate plate was transferred to ice to set up for the RT-qPCR reactions. The lysates could also be frozen at −80° C. for later use.
(§6) To set up 10 uL RT-QpcR reactions, cell lysates were transferred to 384-well qPCR plates containing the master mix according to the table below. The plates were sealed, gently vortexed, and spun down before the run. The volumes were adjusted accordingly in some instances where the reaction was carried in 20 µL. The table below summarizes the components of the RT-qPCR reactions:
(§7) The RT-qPCR reaction was performed using a QuantStudio (ThermoFisher) under the following fast cycling conditions. […]

MYB [2] = experiment: RT-qPCR splicing assay, MYB AJ/CJ mRNA; format: cell-based; conditions: Homo sapiens, A673 or K562 cells, 24 hours; for IC50: decrease in canonical junction mRNA; for AC50: increase in alternative junction mRNA
Experimental: as §1, §2, §3, §4, §5, §6, §7

HTT [3] = experiment: Gene panel canonical junction qPCR assay, HTT CJ mRNA (Table 7); format: cell-based, human; conditions: read-out: HTT CJ mRNA decrease IC50
Experimental: as §1
(§8) The data analysis was performed by first determining the ΔCt vs the housekeeper gene. This ΔCt was then normalized against the DMSO control (ΔΔCt) and converted to RQ (relative quantification) using the 2^(−ΔΔCt) equation. The RQ were then converted to a percentage response by arbitrarily setting an assay window of 3.5 and 4.0 ΔCt for HTT-CJ and MYB-CJ respectively and an assay window of 9 and 3 ΔCt for HTT-AJ and MYB-AJ in 96 well format (50,000 K562 cells/well and 15,000 A673 cells per well) and an assay window of 3 and 4 ΔCt for HTT-CJ and MYB-CJ respectively and an assay window of 5 and 3 ΔCt for HTT-AJ and MYB-AJ respectively in 384 well format (8,000 K562 cells/well example). […] The percentage response was then fitted to the 4 parametric logistic equation to evaluate the concentration dependence of compound treatment. The increase in AJ mRNA is reported as AC50 (compound concentration having 50% response in AJ increase) while the decrease in CJ mRNA levels is reported as IC50 (compound concentration having 50% response in CJ decrease).
(§9) Additional studies were carried out for a larger panel of genes using the protocol provided above. The junction between flanking upstream and downstream exons was used to design canonical junction qPCR assays. At least one of the forward primer, reverse primer or the CY5-labeled 5′ nuclease probe (with 3′ quencher such as ZEN/Iowa Black FQ) was designed to overlap with the exon junction to capture the CJ mRNA transcript. BLAST was used to confirm the specificity of the probeset and parameters such as melting temperature, GC content, amplicon size, and primer dimer formation are considered during their design. Data for the decrease in CJ mRNA levels for four exemplary genes (HTT, SMN2, MYB, and Target C) analyzed in this panel are reported as IC50 (compound concentration having 50% response in CJ decrease).

SMN2 = experiment: Gene panel canonical junction qPCR assay, SMN2 CJ mRNA (Table 7); format: cell-based; conditions: Homo sapiens, read-out: SMN2 CJ mRNA decrease IC50
Experimental: as §1, §8, §9

MYB [4] = experiment: Gene panel canonical junction qPCR assay, MYB CJ mRNA (Table 7); format: cell-based; conditions: Homo sapiens, read-out: MYB CJ mRNA decrease IC50
Experimental: as §1, §8, §9

Target C = experiment: Gene panel canonical junction qPCR assay, Target C CJ mRNA (Table 7); format: cell-based, human; conditions: Homo sapiens, read-out: Target C CJ mRNA decrease IC50
Experimental: as §1, §8, §9

IC50 (HTT [1]; Homo sapiens, 24 h)	IC50 (MYB [2])	IC50 (SMN2)	IC50 (MYB [4])	SMILES	AC50 (HTT [1]; Homo sapiens, 24 h)	AC50 (MYB [2])	IC50 (HTT [3]; Homo sapiens)	IC50 (Target C)	IC50 (HTT [1]; 24 hours)	AC50 (HTT [1]; 24 hours)	IC50 (HTT [3])
1000 to 10000 nM	> 10000 nM	> 10000 nM	> 10000 nM	CN(C)[C@H]1[C@@H]2CN(c3ccc4c(n3)OCc3cc(-n5cccn5)ccc3-4)C[C@@H]21 [Compound 197]	> 10000 nM	1000 to 10000 nM	1000 to 10000 nM	> 10000 nM			
< 100 nM	100 to 1000 nM	< 100 nM	100 to 1000 nM	CCC(C)(C)NC1CCN(c2ccc3c(n2)OCc2cc(-c4cnnc(OC)c4)ccc2-3)C1 (stereo not drawn) [Compound 281, 1-[8-(6-methoxypyridazin-4-yl)-6H-isochromeno[3,4-b]pyridin-3-yl]-N-(2-methylbutan-2-yl)pyrrolidin-3-amine]	< 100 nM	100 to 1000 nM	< 100 nM	100 to 1000 nM			
> 10000 nM	> 10000 nM	> 10000 nM	> 10000 nM	CN1CCC2(CC1)CCN2c1ccc2c(n1)OCc1cc(-c3cn[nH]c3)ccc1-2 [Compound 227, 7-methyl-1-[8-(1H-pyrazol-4-yl)-6H-isochromeno[3,4-b]pyridin-3-yl]-1,7-diazaspiro[3.5]nonane]	> 10000 nM	> 10000 nM	> 10000 nM	> 10000 nM			
< 100 nM	100 to 1000 nM	< 100 nM	100 to 1000 nM	COc1cc(-c2ccc3c(c2)COc2nc(N4CCN[C@@H](C(C)(C)C)C4)ccc2-3)cnn1 [Compound 318, 5-{3-[(3S)-3-tert-butylpiperazin-1-yl]-6H-isochromeno[3,4-b]pyridin-8-yl}-3-methoxypyridazine]	100 to 1000 nM	100 to 1000 nM	< 100 nM	100 to 1000 nM			
> 10000 nM	> 10000 nM			c1cnn(-c2ccc3c(c2)COc2nc(N4CCC(NC5CC5)C4)ccc2-3)c1 (stereo not drawn) [Compound 214]							
				CN(c1cnc2c(n1)OCc1cc(-c3cn[nH]c3)ccc1-2)C1CC(C)(C)NC(C)(C)C1 [Compound 138]				1000 to 10000 nM	1000 to 10000 nM	1000 to 10000 nM	1000 to 10000 nM
				CN(c1ccc2c(n1)COc1cc(-n3cccn3)ccc1-2)[C@@H]1C[C@H]2CC[C@@H](C1)N2 [Compound 109]					100 to 1000 nM	100 to 1000 nM	
	100 to 1000 nM	100 to 1000 nM	100 to 1000 nM	Cc1cc(-c2ccc3c(c2)COc2nc(O[C@@H]4C[C@H]5C[C@@H](C4)N5)ccc2-3)ccn1 [Compound 209]		1000 to 10000 nM	100 to 1000 nM	1000 to 10000 nM			
				CN(c1ccc2c(c1)CCOc1cc(-c3cn[nH]c3)ccc1-2)[C@@H]1C[C@H]2CC[C@@H](C1)N2 [Compound 112]				> 10000 nM			
< 100 nM	100 to 1000 nM			c1cc2c(cc1-c1cn[nH]c1)COc1nc(N3CCC(NC4CC4)C3)ccc1-2 (stereo not drawn) [Compound 211]							
< 100 nM	100 to 1000 nM			CC(C)(C)NC1CCN(c2ccc3c(n2)OCc2cc(-c4cn[nH]c4)ccc2-3)C1 (stereo not drawn) [Compound 212]							
> 10000 nM	> 10000 nM			c1cc2c(cc1-c1cn[nH]c1)COc1nc(N3CCC34CCCNC4)ccc1-2 (stereo not drawn) [Compound 210]							
100 to 1000 nM	1000 to 10000 nM			CC(C)(C)NC1CCN(c2ccc3c(n2)OCc2cc(-n4cccn4)ccc2-3)C1 (stereo not drawn) [Compound 213]							

SMILES	IC50 (HTT [1]; Homo sapiens, 24 h)	IC50 (MYB [2])	IC50 (SMN2)	IC50 (MYB [4])	AC50 (HTT [1]; Homo sapiens, 24 h)	AC50 (MYB [2])	IC50 (HTT [3]; Homo sapiens)	IC50 (Target C)	IC50 (HTT [1]; 24 hours)	AC50 (HTT [1]; 24 hours)	IC50 (HTT [3])
CN(c1ccc2c(n1)CCOc1cc(-n3cccn3)ccc1-2)[C@@H]1C[C@H]2CC[C@@H](C1)N2 [Compound 128]	> 10000 nM				> 10000 nM		> 10000 nM	> 10000 nM			
CCN(c1ccc2c(n1)OCc1cc(-n3cccn3)ccc1-2)[C@@H]1C[C@H]2CCC[C@@H](C1)N2 [Compound 195]		1000 to 10000 nM	100 to 1000 nM	1000 to 10000 nM		> 10000 nM	100 to 1000 nM	1000 to 10000 nM			
CN(c1ccc2c(n1)OCc1cc(-n3cccn3)ccc1-2)[C@H]1[C@@H]2CNC[C@@H]21 [Compound 194]	1000 to 10000 nM		> 10000 nM		1000 to 10000 nM		> 10000 nM	> 10000 nM			
CN(c1ccc2c(n1)CCOc1cc(-c3cn[nH]c3)ccc1-2)C1CC(C)(C)NC(C)(C)C1 [Compound 114]	100 to 1000 nM				< 100 nM		100 to 1000 nM	< 100 nM			
CN(c1ccc2c(n1)CCOc1cc(-c3cn[nH]c3)ccc1-2)[C@@H]1C[C@H]2CC[C@@H](C1)N2 [Compound 127]	> 10000 nM	> 10000 nM	> 10000 nM	> 10000 nM	> 10000 nM	> 10000 nM	> 10000 nM				
c1cc2c(cc1-c1cn[nH]c1)OCCc1nc(N[C@@H]3C[C@H]4CC[C@@H](C3)N4)ccc1-2 [Compound 140]	> 10000 nM	> 10000 nM	> 10000 nM	> 10000 nM	> 10000 nM	> 10000 nM	> 10000 nM				
c1cnn(-c2ccc3c(c2)COc2nc(N(C4CC4)[C@@H]4C[C@H]5CC[C@@H](C4)N5)ccc2-3)c1 [Compound 205]	1000 to 10000 nM				100 to 1000 nM						
c1cnn(-c2ccc3c(c2)COc2nc(N(C4CC4)[C@@H]4C[C@H]5CCC[C@@H](C4)N5)ccc2-3)c1 [Compound 203]	1000 to 10000 nM				1000 to 10000 nM						
c1cc2c(cc1N[C@@H]1C[C@H]3CC[C@@H](C1)N3)CCOc1cc(-c3cn[nH]c3)ccc1-2 [Compound 132]	> 10000 nM				> 10000 nM		> 10000 nM	> 10000 nM			
